We go through six compounds from patent publication US10450299B2, “Substituted quinazoline derivatives as DNA methyltransferase inhibitors” (Pierre Fabre Medicament, priority 2015, dated 2019).

The test system of series [1] is KG-1 human leukemia cells. The experiment in a line: Anti-proliferative activity on KG-1 (ATPLite cell viability). Conditions: KG-1 cells; for inhibition at 0.1 µM: compound at 0.1 μM, read-out: % proliferation inhibition 0.1 μM; for inhibition at 1 µM: compound at 1 μM, read-out: % proliferation inhibition 1 μM; for inhibition at 5 µM: compound at 5 μM, read-out: % proliferation inhibition 5 μM; for inhibition at 10 µM: compound at 10 μM, read-out: % proliferation inhibition 10 μM. In kind it is cell-based. The procedure:
Anti-Proliferative Activity. (on KG-1)
KG-1 human leukemia cells were obtained from the ATCC (USA) and cultivated in RPMI 1640 medium (with HEPES and Glutamine, BE12-115F, Lonza, France) supplemented with, respectively, 20% and 15% foetal calf serum (Lonza, France), at 37° C. and under 5% CO2. To measure the anti-proliferative properties of tested molecules, 2×10^4 cells are seeded at day 0 in a 96 wells plate. The compounds to be tested, stored at −20° C. as 10^−2 M stock solution in 100% DMSO, are freshly diluted on day 1 in RPMI 1640 medium, before adding a dose range of 3.2 nM to 10 μM to the cells. This treatment is repeated on day 2 and 3, and on day 4 cell viability is assessed using the ATPLite™ kit from Perkin (ATPlite™ 1 Step Luminescence Assay System, ref 3016739), following the provider instructions. The raw data are analyzed with GraphPad Prism software (v4.03) to generate EC50 values corresponding to the compound concentrations giving 50% reduction in cell viability. The values presented are the mean results of at least two independent experiments. […]
At the end of the experiment, cell viability was evaluated by determining the level of ATP released by viable cells.
EC50 values were determined with curve fitting analysis method (non linear regression model with a sigmoid dose response, variable Hill slope coefficient) provided by the Prism Software (GraphPad). Results were expressed as average EC50 values (concentration of tested compound that inhibits 50% of the maximum effect for the considered compound).

The target of series [2] is T1, His-DNMT1 (182 kDa, human) (Homo sapiens, UniProt P26358).
T1 construct: His; made in house
T1 sequence (P26358 whole entry): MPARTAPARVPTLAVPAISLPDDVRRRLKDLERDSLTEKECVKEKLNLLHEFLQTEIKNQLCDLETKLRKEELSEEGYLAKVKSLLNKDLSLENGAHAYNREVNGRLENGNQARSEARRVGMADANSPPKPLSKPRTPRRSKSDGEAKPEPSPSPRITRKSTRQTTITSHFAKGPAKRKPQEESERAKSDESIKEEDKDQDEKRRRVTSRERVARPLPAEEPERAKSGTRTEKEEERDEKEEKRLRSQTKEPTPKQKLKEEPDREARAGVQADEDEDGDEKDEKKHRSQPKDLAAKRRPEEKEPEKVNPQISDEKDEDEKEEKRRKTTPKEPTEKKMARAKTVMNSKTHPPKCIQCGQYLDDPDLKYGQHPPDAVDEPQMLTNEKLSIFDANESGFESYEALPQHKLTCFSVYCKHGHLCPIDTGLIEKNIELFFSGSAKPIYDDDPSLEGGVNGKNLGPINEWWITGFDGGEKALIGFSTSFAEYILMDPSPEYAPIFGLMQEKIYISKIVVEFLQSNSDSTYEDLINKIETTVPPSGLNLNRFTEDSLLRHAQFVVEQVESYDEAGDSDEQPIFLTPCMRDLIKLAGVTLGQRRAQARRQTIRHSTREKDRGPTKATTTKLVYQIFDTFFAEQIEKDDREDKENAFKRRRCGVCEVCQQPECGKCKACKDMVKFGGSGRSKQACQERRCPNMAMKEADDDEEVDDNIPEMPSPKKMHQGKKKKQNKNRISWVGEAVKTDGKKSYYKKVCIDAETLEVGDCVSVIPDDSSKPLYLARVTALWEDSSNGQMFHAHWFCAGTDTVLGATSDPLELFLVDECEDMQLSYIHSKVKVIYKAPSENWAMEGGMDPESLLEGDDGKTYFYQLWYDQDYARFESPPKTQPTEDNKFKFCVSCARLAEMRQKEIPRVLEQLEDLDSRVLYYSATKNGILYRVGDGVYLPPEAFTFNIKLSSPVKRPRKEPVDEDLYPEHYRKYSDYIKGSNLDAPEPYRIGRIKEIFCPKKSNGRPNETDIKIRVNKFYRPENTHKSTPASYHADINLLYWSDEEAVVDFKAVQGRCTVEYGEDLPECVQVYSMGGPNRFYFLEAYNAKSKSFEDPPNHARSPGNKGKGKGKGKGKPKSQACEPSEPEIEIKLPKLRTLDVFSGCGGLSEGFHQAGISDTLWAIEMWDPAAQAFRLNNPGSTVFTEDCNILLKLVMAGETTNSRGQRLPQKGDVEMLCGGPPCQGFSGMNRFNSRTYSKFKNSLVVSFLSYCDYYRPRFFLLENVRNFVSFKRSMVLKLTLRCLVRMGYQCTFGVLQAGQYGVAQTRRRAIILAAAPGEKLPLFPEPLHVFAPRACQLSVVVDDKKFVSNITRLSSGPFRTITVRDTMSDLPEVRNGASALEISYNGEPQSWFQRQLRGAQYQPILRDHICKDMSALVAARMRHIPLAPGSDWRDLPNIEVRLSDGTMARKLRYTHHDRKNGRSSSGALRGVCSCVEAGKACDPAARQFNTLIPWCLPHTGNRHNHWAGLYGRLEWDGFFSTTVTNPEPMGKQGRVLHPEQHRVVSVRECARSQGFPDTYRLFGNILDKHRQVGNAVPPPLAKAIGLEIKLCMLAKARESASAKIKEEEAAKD
The experiment in a line: DNMT1 assay (tritiated SAM Flashplate methylation assay). Type of series: biochemical. Conditions: for inhibition at 10 µM: compound at 10 μM; for inhibition at 32 µM: compound at 32 μM. On the procedure:
His-DNMT1 (182 kDa, human) was cloned, expressed and purified as described in Halby et al. (ChemBioChem 2012, 13, 157-65). The reaction was performed in a 10 μL total reaction volume in low volume NBS™ 384-well microplates (Corning), containing the tested compound (up to 1% DMSO), 1 μM of a SAM/[methyl-^3H] SAM (3 TBq/mmol, PerkinElmer) mix in a ratio of 3-to-1 (isotopic dilution 1*:3), 0.3 μM of biotinylated hemimethylated DNA duplex (5′-GATmCGCmCGATGmCGmCGAATmCGmCGATmCGATGmCGAT-3′ and BIOT-5′-[…]-3′), and 90 nM of DNMT1 in methylation buffer (20 mM HEPES pH 7.2, 1 mM EDTA, 50 mM KCl, 25 μg/mL BSA). The reaction was incubated at 37° C. for 2 hours. 8 μL are then transferred into a streptavidin 96-well scintillant coated Flashplate™ (PerkinElmer) containing 190 μL of 20 μM SAH in 50 mM Tris-HCl pH 7.4. The Flashplate™ was agitated at room temperature for 1 hour, washed three times with 200 μL of 0.05% Tween®-20 in 50 mM Tris-HCl pH 7.4, and read in 200 μL of 50 mM Tris-HCl pH 7.4 on TopCount NXT™ (PerkinElmer).

In series [3] the test system is luciferase reporter gene under the control of the partially methylated CMV promoter in KG-1 cell line. The experiment in a line: Gene expression (CMV-Luc reactivation) in KG-1 cells. Type of series: cell-based, human. The following applies: 24 h, induction factor vs DMSO control, mean of 3 experiments ± standard error; for Reactivation fold of luciferase gene reporter, 0.1 μM: compound at 0.1 μM; for Reactivation fold of luciferase gene reporter, 1 μM: compound at 1 μM; for Reactivation fold of luciferase gene reporter, 5 μM: compound at 5 μM; for Reactivation fold of luciferase gene reporter, 10 μM: compound at 10 μM. The procedure:
Gene Expression. (CMV-Luc Reactivation)
KG-1 cell line, stably transfected with the luciferase Firefly (Luc+ from pGL3 by Promega) reporter gene under the control of the CMV promoter (from pEGFP-N1 by Clontech) partially methylated (50%), is seeded at 20,000 cell per well in 96-well plate. After 24 h of incubation in the presence of the compounds or the solvant DMSO, the induction of the promoter is measured by quantification of luciferase with the Brite-lite™ assay system (Perkin Elmer) according to the manufacturer protocol. The luminescence is measured on EnVision™ Multilabel Plate Reader (Perkin Elmer) and the data are expressed in induction factor compared to the DMSO control condition.

The target in series [4] is T2, human C-terminal DNMT3A (a.a. 623-908) (Homo sapiens, UniProt Q9Y6K1).
T2 construct: The human C-terminal DNMT3A (a.a. 623-908); made in house
T2 sequence (Q9Y6K1 627-912): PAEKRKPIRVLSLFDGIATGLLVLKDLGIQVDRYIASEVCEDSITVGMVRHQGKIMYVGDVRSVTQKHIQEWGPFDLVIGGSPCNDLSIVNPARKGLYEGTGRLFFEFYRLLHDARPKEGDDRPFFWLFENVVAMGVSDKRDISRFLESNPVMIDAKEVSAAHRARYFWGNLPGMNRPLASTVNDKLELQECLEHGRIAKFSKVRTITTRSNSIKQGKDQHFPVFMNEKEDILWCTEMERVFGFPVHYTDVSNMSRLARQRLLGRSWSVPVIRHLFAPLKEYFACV
The experiment in a line: DNMT3A assay (restriction-based fluorescence assay). In kind it is biochemical. The following applies: for inhibition at 1 µM: compound at 1 μM; for inhibition at 3.2 µM: compound at 3.2 μM. The source says:
DNMT3A enzyme inhibition was adapted from the restriction-based fluorescence assay protocol described in Ceccaldi et al. (ChemBioChem 2011, 12, 1337-45). Briefly, a 5′-labelled biotin oligonucleotide is hybridized to its complementary strand labelled with 6-carboxyfluorescein at the 3′-end into a 384 well microplate (black Optiplates; Perkin Elmer) pre-coated with avidin. The duplex contains a unique CpG site overlapping with a restriction site of a methylation sensitive restriction enzyme. The human C-terminal DNMT3A (a.a. 623-908), produced as described in Gros et al. (Nucleic Acids Research 2013 41(19):e185), was added in each well (200 ng/well) and mixed with the chemical compounds at desired concentrations and freshly prepared AdoMet (20 μM final concentration) to start the reaction in a total volume of 50 μL. After 1 hour incubation at 37° C. each well were washed three times with PBS, Tween-20 0.05%, NaCl (500 mM) and three more times with PBST. Specific fluorescent signals were detected with the methylation-sensitive restriction enzyme HpyCH4IV (NEB) as described and measured on a Perkin Elmer Envision detector. The percentage of inhibition is reported. The formula used to calculate the percentage of inhibition is [(X−Y)/X]×100, where X is the signal determined in the absence of the inhibitor and Y is the signal obtained in the presence of the inhibitor. The concentration at which 50% of efficacy of inhibition is observed (EC50) was determined by analysis of a concentration range of the tested compound in triplicates. The non-linear regression fittings with sigmoidal dose-response (variable slope) were performed with GraphPad Prism 4.03 (GraphPad Software).

Molecules are shown by their SMILES.

In the case of `CCN(CC)CCNc1nc(NCCCc2ccccc2)c2ccc(OCC3CCN(CCNc4ccnc5ccccc45)CC3)cc2n1` [Compound D, 4-((3-phenylpropyl)amino)-N^2-(2-(diethylamino)ethylenediamine)-7-((1-(2-(quinolin-4-ylamino)ethyl)piperidin-4-yl)methoxy)quinazoline], in series [1], the inhibition at 0.1 µM is -2.3%, the inhibition at 1 µM is 13.2%, the inhibition at 5 µM was found to be 79.7% and the inhibition at 10 µM was determined as 99.5%. Besides, in series [2], the EC50 (usually the midpoint of the concentration-response curve) was found to be 13 µM, the inhibition at 10 µM was determined as 35% and the inhibition at 32 µM amounted to 98%. In addition, in series [3], the “Reactivation fold of luciferase gene reporter, 0.1 μM” value (shortened to “Reactivation fold … 0.1 μM”) was determined as 1.1 ± 0.0 fold; the “Reactivation fold of luciferase gene reporter, 1 μM” value turned out to be 1.7 ± 0.0 fold; the “Reactivation fold of luciferase gene reporter, 5 μM” value (from here on “Reactivation fold … 5 μM”) was found to be 12.7 ± 0.6 fold; the “Reactivation fold of luciferase gene reporter, 10 μM” value (shortened to “Reactivation fold … 10 μM”) is given as 1.1 ± 1.0 fold. In series [4], the inhibition at 1 µM was determined as 52% and the inhibition at 3.2 µM was 81%.
Turning to `COc1cc2c(NCCNc3cccc4ccccc34)nc(N3CCN(c4ccccc4)CC3)nc2cc1OCC1CCN(CCNc2ccnc3ccccc23)CC1` [F, N^1-(6-methoxy-2-(4-phenylpiperazin-1-yl)-7-((1-(2-(quinolin-4-ylamino)ethyl)piperidin-4-yl)methoxy)quinazolin-4-yl)-N^2-(naphtalen-1-yl)ethane-1,2-diamine], the melting point (in general, the temperature of the solid-liquid transition) lay within 180 to 181 °C. Also, in series [1], the inhibition at 0.1 µM turned out to be 2%, the inhibition at 1 µM worked out at 31.9%, the inhibition at 5 µM turned out to be 99.6% and the inhibition at 10 µM is 99.9%. In series [2], the EC50 is 11.7 µM, the inhibition at 10 µM came to 45% and the inhibition at 32 µM came out at 93%. Also, in series [3], the “Reactivation fold … 0.1 μM” value is 1.1 ± 0.0 fold; the “Reactivation fold of luciferase gene reporter, 1 μM” value was 4.4 ± 0.4 fold; the “Reactivation fold … 5 μM” value stood at 1.0 ± 0.8 fold; the “Reactivation fold … 10 μM” value was 0.0 ± 0.0 fold. In series [4], the inhibition at 1 µM was 75% and the inhibition at 3.2 µM was determined as 84%.
`Clc1nc(NCCCc2ccccc2)c2ccc(OCC3CCN(CCNc4ccnc5ccccc45)CC3)cc2n1` [Compound B, 4-((3-phenylpropyl)amino)-2-chloro-7-((1-(2-(quinolin-4-ylamino)ethyl)piperidin-4-yl)methoxy)quinazoline]: in series [1], the inhibition at 0.1 µM is -1.7%, the inhibition at 1 µM is 3.8%, the inhibition at 5 µM is 95.9% and the inhibition at 10 µM is 99.9%. In series [2], the midpoint of the response, the EC50, lay at 19 µM; the inhibition at 10 µM is 5%; the inhibition at 32 µM was 93%. For the same compound, in series [3], the “Reactivation fold … 0.1 μM” value is 1.1 ± 0.0 fold; the “Reactivation fold of luciferase gene reporter, 1 μM” value is reported as 1.4 ± 0.0 fold; the “Reactivation fold … 5 μM” value is 5.8 ± 1.6 fold; the “Reactivation fold … 10 μM” value is listed as 0.0 ± 0.0 fold. In series [4], the inhibition at 1 µM was 0% and the inhibition at 3.2 µM amounted to 73%.
For the compound `Oc1ccc2c(NCCCc3ccccc3)ncnc2c1CN1CCN(CCNc2ccnc3ccccc23)CC1` [Compound A, 4-((3-phenylpropyl)amino)-8-((1-(2-(quinolin-4-ylamino)ethyl)piperazin-1-ylmethyl))quinazoline-7-ol], in series [1], the inhibition at 0.1 µM was -0.8%, the inhibition at 1 µM stood at 6.1%, the inhibition at 5 µM is 29.7% and the inhibition at 10 µM came out at 84.5%. For the same compound, in series [2], the inhibition at 10 µM amounted to 0% and the inhibition at 32 µM stood at 0%. Also, in series [3], the “Reactivation fold … 0.1 μM” value turned out to be 1.1 ± 0.1 fold; the “Reactivation fold of luciferase gene reporter, 1 μM” value is on record as 1.2 ± 0.1 fold; the “Reactivation fold … 5 μM” value came to 4.4 ± 0.5 fold; the “Reactivation fold … 10 μM” value was determined as 6.0 ± 0.6 fold. Besides, in series [4], the inhibition at 1 µM worked out at 0% and the inhibition at 3.2 µM was found to be 18%.
Turning to `Clc1nc(NCCCc2ccccc2)c2ccc(OCC3CCN(CCNc4ccncc4)CC3)cc2n1` [Compound H], in series [4], the inhibition at 1 µM came out at 0% and the inhibition at 3.2 µM turned out to be 32%.
Regarding `CN1CCN(c2nc(NCCCc3ccccc3)c3ccc(OCC4CCN(CCNc5ccnc6ccccc56)CC4)cc3n2)CC1` [Compound C, 4-((3-phenylpropyl)amino)-7-((1-(2-(quinolin-4-ylamino)ethyl)piperidin-4-yl)methoxy)-2-(4-methylpiperazin-1-yl)quinazoline], in series [1], the inhibition at 0.1 µM is -3.1%, the inhibition at 1 µM was determined as 5.7%, the inhibition at 5 µM was determined as 99.1% and the inhibition at 10 µM came out at 99.7%. In addition, in series [2], a half-maximal effect (EC50) was put at 23 µM, the inhibition at 10 µM is 0% and the inhibition at 32 µM was 94%. In series [3], the “Reactivation fold … 0.1 μM” value is given as 1.1 ± 0.0 fold; the “Reactivation fold of luciferase gene reporter, 1 μM” value is 1.7 ± 0.1 fold; the “Reactivation fold … 5 μM” value is recorded as 0.1 ± 0.0 fold; the “Reactivation fold … 10 μM” value was 0.0 ± 0.0 fold. Moreover, in series [4], the inhibition at 1 µM amounted to 0% and the inhibition at 3.2 µM turned out to be 43%.
